# Measured values reported in US20220305020A1, “THE USE OF PARAXANTHINE TO REDUCE EXERCISE-INDUCED MENTAL FATIGUE” (Ingenious Ingredients, LP, priority 2021, published 2022).
# Columns and labels:
# trained runners [1] = assay: Berg-Wisconsin Card Sorting Test (BCST) before and after a mentally fatiguing 10-km run; format: in vivo, human; settings: 200 mg oral; after 10-km run compared to pre-exhaustive exercise
# Description: (§1) Trained runners from local running and triathlon clubs and races were recruited to participate in this study. Cognitive performance was assessed prior and after a mentally fatiguing endurance run. Eligibility criteria included healthy trained runners or triathletes between 18-40 years of age, current (>6 months) history of run training, and documented evidence that they averaged 8 minute/mile or less running pace during a recent competition (e.g., completing a 5-km road race or marathon). Qualified runners were invited to attend a familiarization session which provided an overview of the study and participants informed consent to participate in the study. A total of 32 individuals responded to study advertisements and were assessed for eligibility, 28 completed a familiarization session, 13 met eligibility requirements, agreed to participant in the study and were randomized into treatments. 1 subject dropped out of the study due to not complying with the study protocol. 12 subjects (11 males, 1 female) ultimately finished the trial. Volunteers visited the lab a total of five times including one familiarization session and four experimental sessions. During the familiarization session, participants were explained the study protocol, provided informed consent, answered a medical questionnaire, and had height, weight, resting heart rate, and resting blood pressure. Males then had body composition determined using dual energy X-ray absorptiometry (DXA) while females took a urine pregnancy test prior to the DXA scan to verify they were not pregnant. Participants then took each cognitive function test three times to familiarize them to the tests and establish test reliability. Volunteers practiced running on the treadmill to be used in the study at race pace. Once completed, the participants then performed a graded maximal cardiopulmonary (VO2 peak) treadmill test to determine peak heart rate and aerobic capacity. Participants were also asked to maintain usual eating habits and avoid new dietary supplements for the duration of the study. Participants were also asked to prepare for each testing session as they would a 10-km road race and refrain from vigorous physical activity, alcohol intake, and over-the-counter medications for 24 hours as well as fast for 8-12 hours prior to reporting to the lab. […] Upon arriving at the lab, participants had weight, resting heart rate, and blood pressure determined. Participants then completed a side effects questionnaire, performed two cognitive function tests, the Psychomotor Vigilance Task Test (PVTT), a test that objectively assesses fatigue-related changes in alertness, and the Berg-Wisconsin Card Sorting Test (BCST), donated a fasting blood sample, and then ingested 1 of 4 randomly assigned oral supplements (PRE). Supplements were administered in a double blind, randomized, and crossover manner using a Balanced Latin Square method to counterbalance the order of treatment administration. Treatments included (1) 400 mg of placebo (PL, wheat flour, Shandong Bailong Chuangyuan Bio-tec Co. Ltd., Dezhou, China); (2) 200 mg of PL+200 mg of Caffeine (CSPC Innovation Pharmaceutical Co. Ltd., Shi Jiazhuang, China); (3) 200 mg of PL+200 mg of […], Ingenious Ingredients, L.P. Lewisville, Tex., USA) or (4) 200 mg CA+200 mg of PX (CA+PX). Supplements were prepared using good manufacturing practices and certified for content. Supplements were the same size and appearance and packaged in generically labeled bottles for administration in a double-blind manner. Participants ingested one capsule with 8-ounces of water of the assigned treatment. Participants then rested for 15-minutes and repeated these tests. Volunteers then performed a 10-km run at their self-determined pace. Heart rate was obtained every kilometer during the run. Once completed, participants donated a venous blood sample. Participants then completed the cognitive function tests and the side effects questionnaire. […]
# Male, 51 = assay: Uchida-Kraepelin test (UKT), serial calculation test of mental fatigue; format: in vivo, human; settings: one subject; for increase of mean performance during the first 15-minutes of UKT / mental fatigue (gradual decrease in performance) during the second 15-minutes of UKT: 200 mg of paraxanthine or 200 ng of caffeine
# Description: […], consumed 200 mg of paraxanthine or […] or placebo, separated by one-week wash-out, prior to performing a serial calculation test, the Uchida-Kraepelin test (UKT), that is designed to measure mental fatigue. The test has been standardized and is widely used in clinical psychology, psychiatry, and occupational mental health practice. In this test, a subject is instructed to perform serial calculation of random numbers printed on a paper for 15 minutes. After a 5-minute rest, another 15 minutes of calculations are performed. The test subject is instructed to compute as many calculations as possible. Performance is assessed by 1-minute intervals.
# BDNF = BDNF levels in young and old rats after paraxanthine supplementation; format: in vivo
# catalase = assay: Catalase levels in young and old rats after paraxanthine supplementation; format: in vivo
# glutathione = assay: Glutathione levels in young and old rats after paraxanthine supplementation; format: in vivo
# trained runners [2] = assay: Psychomotor Vigilance Task Test (PVTT) before and after a mentally fatiguing 10-km run; format: in vivo, human
# Description: as §1
# [3] = old rats, high-dose paraxanthine group
# [4] = old rats, low-dose paraxanthine group
# [5] = young rats, high-dose paraxanthine group
# [6] = young rats, low-dose paraxanthine group
# [7] = 200 mg oral, compared to pre-exhaustive exercise
structure (smiles),measurement,setting,value
"Cn1c(=O)c2c(ncn2C)n(C)c1=O [caffeine, reference compound]",increase in number of correct responses in the BCST,trained runners [1],did not change
same,increase in number of errors in the BCST,trained runners [1],19.4%
same,increase in number of preservative errors (PAR rules) in the BCST,trained runners [1],23.3%
same,increase in number of preservative errors in the BCST,trained runners [1],15.9%
same,increase of mean performance during the first 15-minutes of UKT,"Male, 51",7%
same,mental fatigue (gradual decrease in performance) during the second 15-minutes of UKT,"Male, 51",failed to prevent metal fatigue
Cn1c(=O)[nH]c2ncn(C)c2c1=O [paraxanthine],increase in number of correct responses in the BCST,trained runners [1],5.7%
same,reduction in number of errors in the BCST,trained runners [1],1.5%
same,reduction in number of preservative errors (PAR rules) in the BCST,trained runners [1],10.6%
same,reduction in number of preservative errors in the BCST,trained runners [1],4.6%
same,BDNF levels,BDNF; [3],863.40 ± 35.21 pg/mL
same,BDNF levels,BDNF; [4],776.40 ± 18.54 pg/mL
same,BDNF levels,BDNF; [5],939.15 ± 42.34 pg/mL
same,BDNF levels,BDNF; [6],828.05 ± 35.03 pg/mL
same,increase of mean performance during the first 15-minutes of UKT,"Male, 51",15%
same,mental fatigue (gradual decrease in performance) during the second 15-minutes of UKT,"Male, 51",prevented mental fatigue
same,increase of mean performance during the second 15-minutes of UKT,"Male, 51; 200 mg of paraxanthine",21%
same,catalase levels,catalase; [3],36.84±1.68 U/mL
same,catalase levels,catalase; [4],29.34±1.50 U/mL
same,catalase levels,catalase; [5],38.91±2.65 U/mL
same,catalase levels,catalase; [6],30.24±1.58 U/mL
same,glutathione levels,glutathione; [3],27.49 ± 0.84 µg/mL
same,glutathione levels,glutathione; [4],22.27 ± 1.00 µg/mL
same,glutathione levels,glutathione; [5],34.41 ± 1.97 µg/mL
same,glutathione levels,glutathione; [6],24.04 ± 1.74 µg/mL
same,"greater improvement in reaction time compared to caffeine, trial 2","trained runners [2]; 200 mg oral each, PVTT",25%
same,"greater improvement in reaction time compared to caffeine, trial 10","trained runners [2]; 200 mg oral each, PVTT",44%
same,"greater improvement in reaction time compared to caffeine, trial 20","trained runners [2]; 200 mg oral each, PVTT",12%
same,"improvement of reaction time in the PVT Test, early trials (trial 2)",trained runners [2]; [7],7.3%
same,"improvement of reaction time in the PVT Test, late trials (trial 20)",trained runners [2]; [7],10.9%
same,"improvement of reaction time in the PVT Test, middle trials (trial 10)",trained runners [2]; [7],10.9%
